“And” between values parts separate entries of the source, which are not always exact repeats. Equal values may be shown once.

The text below walks through data of patent US6452014B1, “Telomerase inhibitors and methods of their use” (Geron Corporation, priority 2000, dated 2002).

In the assay the target is T1, partially purified telomerase from a nuclear extract of HEK293 cells (Homo sapiens, UniProt O14746).
T1 construct: partially purified telomerase from a nuclear extract of HEK293 cells; endogenous in cells; host or cells: HEK293 cells (nuclear extract, partially purified)
The assay can be described thus: In vitro telomerase inhibition, membrane hybridization assay (method of U.S. Pat. No. 5,760,062). The class given is biochemical. The note with it: replicate determinations listed in one cell. How it is done: Alternatively, telomerase inhibitory activity of the compounds was measured in accordance with a known method (U.S. Pat. No. 5,760,062). That is, a dimethyl sulfoxide (DMSO) solution of each agent was mixed with partially purified telomerase from a nuclear extract of HEK293 cells and incubated in the presence of an oligodeoxynucleotide to be used as the substrate and deoxynucleotide triphosphate. The obtained reacted product (DNA having a telomere sequence) was adsorbed on a membrane, and hybridization was carried out using a labeled oligonucleotide probe having a sequence complementary to the telomere sequence. The inhibition ratio was calculated based on the ratio of the signal of label on the membrane in the presence of the agent to the signal of label in the absence of the agent (control). Also, concentration of each agent which inhibits 50% of the enzyme activity based on the control was used as IC50.

T1 sequence (O14746 whole entry): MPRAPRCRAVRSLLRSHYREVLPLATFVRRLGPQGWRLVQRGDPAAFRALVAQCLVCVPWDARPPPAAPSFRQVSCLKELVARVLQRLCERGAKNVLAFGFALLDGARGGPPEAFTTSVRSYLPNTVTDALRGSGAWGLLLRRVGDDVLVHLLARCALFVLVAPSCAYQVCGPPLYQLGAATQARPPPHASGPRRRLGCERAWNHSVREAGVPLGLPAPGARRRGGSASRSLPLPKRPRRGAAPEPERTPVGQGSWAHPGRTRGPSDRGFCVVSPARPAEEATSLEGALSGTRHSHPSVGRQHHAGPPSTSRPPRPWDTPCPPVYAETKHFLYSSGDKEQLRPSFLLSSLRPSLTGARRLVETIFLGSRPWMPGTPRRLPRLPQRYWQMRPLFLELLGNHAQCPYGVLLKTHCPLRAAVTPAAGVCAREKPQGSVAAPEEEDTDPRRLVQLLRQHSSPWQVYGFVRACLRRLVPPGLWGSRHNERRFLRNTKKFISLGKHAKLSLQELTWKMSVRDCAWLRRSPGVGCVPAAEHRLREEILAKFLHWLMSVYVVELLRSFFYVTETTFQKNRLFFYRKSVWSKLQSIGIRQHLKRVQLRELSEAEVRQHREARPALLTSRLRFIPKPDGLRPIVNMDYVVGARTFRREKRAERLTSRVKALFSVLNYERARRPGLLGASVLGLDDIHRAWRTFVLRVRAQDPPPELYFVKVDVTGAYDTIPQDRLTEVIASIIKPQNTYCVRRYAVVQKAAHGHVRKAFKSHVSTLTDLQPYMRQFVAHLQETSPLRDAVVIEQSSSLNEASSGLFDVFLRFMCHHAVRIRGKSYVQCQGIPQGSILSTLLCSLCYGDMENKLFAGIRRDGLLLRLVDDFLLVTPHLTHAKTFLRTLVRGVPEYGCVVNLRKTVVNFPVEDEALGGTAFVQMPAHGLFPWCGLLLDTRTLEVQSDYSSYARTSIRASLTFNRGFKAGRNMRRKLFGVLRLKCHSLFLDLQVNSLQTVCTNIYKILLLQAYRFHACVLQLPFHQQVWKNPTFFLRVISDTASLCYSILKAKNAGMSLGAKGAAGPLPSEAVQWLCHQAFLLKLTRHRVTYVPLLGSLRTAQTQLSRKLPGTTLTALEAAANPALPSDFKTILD

As to `Cc1cc2nc(-c3ccc(/C=C4\SC(=O)NC4=O)cc3)n(Cc3ccc(Cl)c(Cl)c3)c2cc1C` [Example 15, 1-(3,4-Dichlorobenzyl)-5,6-dimethyl-2-[4-[(2,4-dioxothiazolidin-5-ylidene)methyl]phenyl]benzimidazole], the IC50 was 3.01 µM and 2.43 µM.
Under `CN(C)CCn1c(-c2ccc(/C=C3\SC(=O)NC3=O)cc2)nc2cc(Cl)c(Cl)cc21` [Example 21, 5,6-Dichloro-1-(2-dimethyaminoethyl)-2-[4-[(2,4-dioxothiazolidin-5-ylidene)methyl]phenyl]benzimidazole] stands 19.2 µM and 15.9 µM; under `O=C1NC(=O)/C(=C/c2cc3cc(-c4nc5cc(Cl)c(Cl)cc5[nH]4)ccc3[nH]2)S1` [Example 46, 5,6-Dichloro-2-[2-[(2,4-dioxothiazolidin-5-ylidene)methyl]indol-5-yl]benzimidazole], 5.4 µM.
For the molecule `O=C1NC(=O)/C(=C/c2ccc3[nH]c(-c4nc5cc(Cl)c(Cl)cc5[nH]4)cc3c2)S1` [Example 45, 5,6-Dichloro-2-[5-[(2,4-dioxothiazolidin-5-ylidene)methyl]indol-2-yl]benzimidazole], the IC50 is 0.61 µM.
Turning to `O=C1NC(=O)C(Cc2ccc(-c3nc4cc(Cl)c(Cl)cc4[nH]3)cc2)S1` (stereo not shown) [Example 28, 2-[4-[(2,4-Dioxothiazolidin-5-yl)methyl]phenyl]-5,6-dichlorobenzimidazole], the IC50 was 14.5 µM and 15 µM.
Under `O=C1NC(=O)/C(=C/c2ccc(-c3nc4c(C(F)(F)F)cc(Cl)cc4[nH]3)cc2)S1` [Example 5, 6-Chloro-2-[4-[(2,4-dioxothiazolidin-5-ylidene)methyl]phenyl]-4-(trifluoromethyl)benzimidazole] stands 4.98 µM and 2.95 µM; under `Cn1c(/C=C2\SC(=O)NC2=O)ccc1-c1nc2cc(Cl)c(Cl)cc2[nH]1` [Example 33, 2-[2-[(2,4-Dioxothiazolidin-5-ylidene)methyl]-1-methylpyrrol-5-yl]-5,6-dichlorobenzimidazole], 3.18 µM and 2.47 µM.
For the molecule `O=C1NC(=O)/C(=C/c2ccc(-c3nc4ccccc4n3Cc3ccc(Cl)c(Cl)c3)cc2)S1` [Example 14, 1-(3,4-Dichlorobenzyl)-2-[4-[(2,4-dioxothiazolidin-5ylidene)methyl]-phenyl]benzimidazole], the IC50 was 1.61 µM and 1.92 µM.
Under `O=C1NC(=O)/C(=C/c2ccc3cc(-c4nc5cc(Cl)c(Cl)cc5[nH]4)ccc3c2)S1` [Example 40, 5,6-Dichloro-2-[6-[(2,4-dioxothiazolidin-5-ylidene)methyl]naphth-2-yl]benzimidazole] stands 0.29 µM and 0.55 µM and 0.51 µM; under `CCOC(=O)Cn1c(-c2ccc(/C=C3\SC(=O)NC3=O)cc2)nc2cc(Cl)c(Cl)cc21` [Example 20, Ethyl [5,6-Dichloro-2-[4-[(2,4-dioxothiazolidin-5-ylidene)methyl]phenyl]-benzimidazol-1-yl]acetate], 2.28 µM and 3.26 µM.
Next, `O=C1NC(=O)/C(=C/c2ccc(-c3nc4cc(Cl)c(Cl)cc4[nH]3)o2)S1` [Example 30]: 5.19 µM and 2.76 µM; `O=C1NC(=O)/C(=C/c2ccc(-c3nc4cc([N+](=O)[O-])ccc4[nH]3)cc2)S1` [Example 4, 2-[4-[(2,4-Dioxothiazolidin-5-ylidene)methyl]phenyl]-5-nitrobenzimidazole]: 4.3 µM and 3.69 µM; `O=C1NC(=O)/C(=C/c2ccc(-c3nc4cc(C(=O)c5ccccc5)ccc4[nH]3)cc2)S1` [Example 6, 5-Benzoyl-2-[4-[(2,4-dioxothiazolidin-5-ylidene)methyl]phenyl]benzimidazole]: 3.04 µM and 3.35 µM.
Under `O=C1NC(=O)/C(=C/c2ccc(-c3nc4cc(Cl)c(Cl)cc4[nH]3)c3ccccc23)S1` [Example 39, 5,6-Dichloro-2-[4-[(2,4-dioxothiazolidin-5-ylidene)methyl]naphth-1-yl]benzimidazole] stands 0.44 µM and 0.92 µM and 1.01 µM; under `O=C1NC(=O)/C(=C/c2cc(Br)c(-c3nc4cc(Cl)c(Cl)cc4[nH]3)s2)S1` [Example 29, 5,6-Dichloro-2-[3-bromo-5-[(2,4-dioxothiazolidin-5-ylidene)methyl]thiophen-2-yl]benzimidazole], 1.89 µM and 2.26 µM; under `O=C1NC(=O)/C(=C/c2ccc(-c3nc4ccccc4[nH]3)cc2)S1` [Example 2, 2-[4-[(2,4-Dioxothiazolidin-5-ylidene)methyl]phenyl]benzimidazole], 1.05 µM and 1.52 µM.
Regarding `O=C1NC(=O)/C(=C/c2ccc(-c3nc4cc(Cl)c(Cl)cc4[nH]3)s2)S1` [Example 32, 5,6-Dichloro-2-[2-[(2,4-dioxothiazolidin-5-ylidene)methyl]thiophen-5-5-yl]benzimidazole], the 50% inhibitory concentration (IC50) was 1.96 µM and 1.91 µM.
Regarding `Cc1cc2nc(-c3ccc(/C=C4\SC(=O)NC4=O)cc3)[nH]c2cc1C` [Example 3, 5,6-Dimethyl-2-[4-[(2,4-dioxothiazolidin-5-ylidene)methyl]phenyl]benzimidazole], the IC50 is 5.44 µM and 6.2 µM.
Under `O=C1NC(=O)/C(=C/c2ccc(-c3nc4cc(Cl)c(Cl)cc4[nH]3)cc2)S1` [Example 1, 5,6-Dichloro-2-[4-[(2,4-dioxothiazolidin-5-ylidene)methyl]phenyl]benzimidazole] stands 1.86 µM and 1.1 µM and 1.22 µM and 0.85 µM and 1.14 µM.
